Tests used:
honey bee colonies = assay: Overwintering field trial of honey bee colonies treated with HPBCD and acaricide; format: in vivo; settings: for colony (hive) loss: fed October to December, surviving hives counted in March, 10 colonies per treatment, no treatment about 50%; for total frames containing bees: measured in March after overwintering, no treatment 50 frames
Procedure: This example illustrates the use of HPBCD in a field setting. Four treatments with 10 colonies per treatment were performed as follows: (i) No HPBCD and no acaricide (No Treatment control), (ii) acaricide alone (Amitraz), (iii) HPBCD, and (iv) a combination of Amitraz and HPBCD. Colonies were fed treatments using a top box feeder in a “Langstroth Hive” from October to December, then surviving hives were counted in March of the following year and numbers of Langstroth frames containing bees were measured. About 50% of the colonies that received no treatment were lost; while it is a high level of loss it was within the expected range for hives that received no extra management besides sugar syrup supplementation (which agrees with the national average for untreated colonies). The group receiving only Amitraz, the current industry standard for mite control, lost about 20% of the colonies. HPBCD on its own was able to reduce hive loss to about 30%. […] Not intending to be bound by theory, one possible explanation for this profound effect is that Amitraz was lethal to mites based on contact (LC50), while the possible sub lethal and chronic affects for the honey bee were dosage based (LD50) as evidenced by slower behavioral response time (see e.g., De Mattos, 2017). It is likely the bees ingest the HPBCD and the Amitraz was sequestered rendering its effects on the bee diminished, while the groups that received no HPBCD were still susceptible to the effects of the acaricide.

[1] = system: Deformed wing virus (DWV); assay: Viral load (RT-qPCR) in virus-infected honey bees after MBCD treatment; format: in vivo, Apis mellifera; settings: for decrease in DWV (+) sense viral genome / decrease in DWV (−) sense replicative strand: 10 μg/bee MBCD; for decrease in DWV (+) sense viral genome: versus untreated infected bees
Procedure: The presence of DWV and Varroa destructor was determined as follows. Total RNA was extracted from whole body 12 individual honey bees using the TRIzol Reagent® (available from Thermo Fisher Scientific, Waltham, Mass.) by manufacturers specifications, and stored at −80° C. First-strand cDNA was synthesized using the Superscript III Reverse Transcriptase (available in a kit from Thermo Fisher Scientific). Briefly, each reaction contained: 3 μl total bee RNA (˜1 μg/μl), 1 μl of 10 mM dNTPs, 1 μl random primers (0.15 μg/μl), 1 μL of Oligo(dT), 1 μl of 0.1 M DTT (0.1 M), 4 μl 5×First-Strand Buffer, 1 uL of 200 U/μL RnaseOUT, 1 μl of 200 U/μl SuperScript III Reverse Transcriptase, and 7 μl Nuclease-free water. The reaction mixture was incubated at 25° C. for 5 min, 55° C. for 2 hrs, and 70° C. for 15 min, then stored at −20° C. until use. Transcript levels (RT-qPCR analysis) were quantified using the Brilliant III Ultra-Fast SYBR Green® QPCR Master Mix (Agilent Technologies, Inc., Santa Clara, Calif.) on a CFX384 Touch Real Time PCR Detection System (Bio-Rad Laboratories, Inc., Hercules, Calif.). Samples were incubated at 95° C. for 5 min, followed by 40 cycles of 95° C. for 20 s, 59° C. for 20 s, and 72° C. for 20 s. Thereafter, a melt curve analysis from 65° C. to 95° C. was performed to confirm product specificity. For the detection and quantification of negative stranded bee viruses, replication intermediates, TAG-DWV primers were substituted for random primers or oligos (see e.g., Boncristiani et al., 2009). The fold difference in viral concentration among different treatment groups was determined using the comparative Ct method (2^−ΔΔCT method) (see e.g., Livak & Schmittgen, 2001). Calibrators were chosen as the highest average treatment ΔCt value for each experiment.
Emerging bees that had non-deformed wings (i.e., asymptomatic) were selected for a cage study (n=30 bees per cage & 6 replicate cages per treatment). […] Virally infected untreated bees were compared to bees fed 10 μg/bee MBCD in 50% sucrose solution. In FIG. 6A, DWV (+) sense viral genome titers were compared 3 and 6 days after treatment. An unpaired, 2-tailed Student's T-Test was performed to determine statistical significance (p<0.05 at 3 days feeding; N.S.=Non-significant 6 days after treatment). In FIG. 6B, DWV (−) sense replicative strand titers were compared 3 and 6 days after treatment. An unpaired, 2-tailed Student's T-Test was performed to determine statistical significance (p<0.0001 for 3 days post treatments; p=0.049 for 6 days post treatment). The “★” denotes the sample chosen as the 2^−ΔΔCT calibrator and bars denote standard error.

honey bees [2] = assay: Cage survival study of bees fed sublethal doses of pesticides with or without MBCD; format: in vivo, Apis mellifera
Procedure: (§1) This example illustrates the baseline effects of the inventive composition in the absence of an exogenous stressor. Samples of European honey bees, Apis mellifera, were collected from colonies maintained in the apiaries of the USDA-ARS Bee Research Laboratory in Beltsville, Md. Frames with emerging brood were removed from colonies and individually placed in a mesh-walled cage. The cages were transferred to an insect growth chamber at 34° C. and 70% humidity. After 24 hrs incubation, newly emerged honey bees were transferred to a honey bee rearing cup, with a top-feeder design, allowing for easy sampling of honey bees (see e.g., Evans et al., 2009). A 3 mL syringe filled with 50% sugar syrup mixture was inverted over the top of the rearing cup to provision the caged honey bees. The honey bees were also provisioned with 1.5 grams of honey bee pollen supplement in patty form (e.g., Bee-Pro®, available from Mann Lake Ltd, Hackensack, Minn.), supplemented 10% (w/w) with ground fresh pollen, and placed on cotton paper on the cup cage bottoms. Syringes and sucrose solution were changed every 3 days and cotton paper was changed once per week.
In this example, whether MBCD mitigates the toxicity of certain pesticides associated with honey bee death was investigated. Not intending to be theory-bound, it was hypothesized that the binding of hydrophobic pesticide molecules to CDs would translate into health benefits to honey bees that were exposed to such pesticides. Samples of honey bees were collected as in example 1. A cage study (n=30 bees per cage & 2 replicate cages per treatment) was performed using 50% sucrose solution that had been spiked with sublethal doses of common pesticides that are known to be toxic to honey bees to measure the ability of treatment MBCD compositions to confer protection to the honey bees. Analytical grade standards of clothianidin, imidacloprid, and chlorpyrifos (available from MilliporeSigma, St. Louis, Mo.) were first dissolved in acetone, then diluted to their final concentrations (Table 2) in 50% sugar syrup. The listed sublethal doses were derived from taking half of the previously published honey bee LD50s (referred to a “LD25” in Table 2). The solutions were administered via 3 mL syringes in rearing cups as previously stated. Fresh pesticide solutions were mixed every 3 days to coincide with syringe replacement (see e.g., Williamson et al., 2013; Li et al, 2017).
Median survival is represented for each treatment by (# days). Curves were compared using Log-Rank Mantel-Cox (p<0.0001 for clothianidin versus control, 1, or 10 μg MBCD; p<0.001 for chlorpyrifos versus control or 1 μg MBCD) and Gehan-Breslow-Wilcoxon (p<0.0001 for clothianidin versus control, 1, or 10 μg MBCD; p<0.05 for chlorpyrifos versus control or 1 μg MBCD). […] The chlorpyrifos treatment was able to reduce median lifespan on its own to 26 days compared to the 36 days of the control (FIG. 2C). While a dosage of 10 μg/bee MBCD did increase median lifespan to 30 days, there was not a significant change in median lifespan.

honey bees [3] = assay: MBCD and HPBCD alpha-tocopherol inclusion complex treatment of clothianidin-exposed bees, survival; format: in vivo, Apis mellifera; settings: clothianidin treatment alone, n=280 bees/treatment
Procedure: MBCD & HPBCD alpha-tocopherol inclusion complexes were formulated using 2.33 μL of +-(α)-tocopherol (1,000 I.U., available from MilliporeSigma, St. Louis, Mo.) added to 1 g of MBCD or HPBCD to arrive at a concentration of approximately 20 I.U. of tocopherol/bee/day and 10 μg (or other indicted dosage) of BCD/bee/day. The resulting powder can be stored at −20° C. or immediately dissolved into 4.166 L of water containing 50% sucrose. The resulting solution is stable and stored at 4° C. until further use. The comparative effects of MBCD versus HPBCD treated bees are shown for lab-controlled environment (n=280 bees/treatment).

honey bee = settings: half of previously published honey bee LD50; used as dose in the cage study; cited from earlier work
[4] = system: European honey bees, Apis mellifera; assay: Longevity of healthy adult worker bees in cage study after MBCD treatment; format: in vivo; settings: healthy newly emerged bees, versus control
Procedure: as §1
Newly emerged honey bees were placed in individual cages (n=30 bees per cage & 2 replicate cages per treatment) and fed using a syringe filled with 50% sucrose alone or supplemented with either 1, 10, or 100 μg MBCD per bee/per week. […]

[5] = system: glutathione-S-transferase S1 (GSTS1); assay: Transcript levels of honey bee detoxification gene (RT-qPCR); format: in vivo, Apis mellifera; settings: clothianidin plus 10 μg/bee MBCD versus pesticide only, after 3 days of feeding
Procedure: Bees receiving clothianidin were compared to bees receiving the pesticide with the addition of 1 μg or 10 μg/bee MBCD after 3 days of feeding. One-way ANOVA with Tukey multiple comparisons was performed to determine any statistical significance (p<0.05 for Clothianidin versus Clothianidin+10 μg/bee MBCD). The “*” denotes the sample chosen as the 2^−ΔΔCT calibrator. […] Pesticides removed from the immediate environment results in less energy dedicated to detoxification and excretion.
(§2) The presence of DWV and Varroa destructor was determined as follows. Total RNA was extracted from whole body 12 individual honey bees using the TRIzol Reagent® (available from Thermo Fisher Scientific, Waltham, Mass.) by manufacturers specifications, and stored at −80° C. […] Transcript levels (RT-qPCR analysis) were quantified using the Brilliant III Ultra-Fast SYBR Green® QPCR Master Mix (Agilent Technologies, Inc., Santa Clara, Calif.) on a CFX384 Touch Real Time PCR Detection System (Bio-Rad Laboratories, Inc., Hercules, Calif.). […] For the detection and quantification of negative stranded bee viruses, replication intermediates, TAG-DWV primers were substituted for random primers or oligos (see e.g., Boncristiani et al., 2009). The fold difference in viral concentration among different treatment groups was determined using the comparative Ct method (2^−ΔΔCT method) (see e.g., Livak & Schmittgen, 2001). […]

[6] = system: honey bees infected with Deformed wing virus; assay: Weight of virus-infected honey bees after MBCD treatment; format: in vivo, Apis mellifera; settings: 10 μg/bee MBCD
Procedure: Untreated bees fed only 50% sucrose were compared to bees receiving 10 μg/bee MBCD in 50% sucrose (FIG. 7). Median survival was represented for each treatment by (# days). Curves were compared using Log-Rank Mantel-Cox (p<0.001) and Gehan-Breslow-Wilcoxon (p<0.01). […] The mass ([…]) of control bees was compared to bees fed 10 μg/bee MBCD. Bees were measured 3 (FIG. 8A) and 6 (FIG. 8B) days post feeding. With average bee weight higher along with more bees present, the amount of work accomplished in the hive as a whole would be expected to increase. An unpaired, 2-tailed Student's T-Test was performed to determine statistical significance (p<0.05 at 3 days) and bars denote standard error.

[7] = system: honey bees infected with Deformed wing virus; assay: Survival of virus-infected honey bees after MBCD treatment; format: in vivo, Apis mellifera; settings: 10 μg/bee MBCD in 50% sucrose, untreated 6 days
Procedure: as §2, with “C. First-strand cDNA was synthesized using the Superscript III Reverse Transcriptase (available in a kit from Thermo Fisher Scientific).” for “C.”
Untreated bees fed only 50% sucrose were compared to bees receiving 10 μg/bee MBCD in 50% sucrose (FIG. 7). […] Bees were measured 3 (FIG. 8A) and 6 (FIG. 8B) days post feeding. […]

[8] = bees fed pesticide alone at sublethal dose in 50% sucrose, control 36 days

CC(O)COC[C@H]1O[C@@H]2O[C@H]3[C@H](O)[C@@H](O)[C@@H](O[C@H]4[C@H](O)[C@@H](O)[C@@H](O[C@H]5[C@H](O)[C@@H](O)[C@@H](O[C@H]6[C@H](O)[C@@H](O)[C@@H](O[C@H]7[C@H](O)[C@@H](O)[C@@H](O[C@H]8[C@H](O)[C@@H](O)[C@@H](O[C@H]1[C@H](O)[C@H]2O)O[C@@H]8COCC(C)O)O[C@@H]7COCC(C)O)O[C@@H]6COCC(C)O)O[C@@H]5COCC(C)O)O[C@@H]4COCC(C)O)O[C@@H]3COCC(C)O (stereo partly drawn) [HPBCD, hydroxypropyl-β-cyclodextrin]
colony (hive) loss (honey bee colonies): about 30% | total frames containing bees (honey bee colonies): 53.5 frames

CN/C(=N\[N+](=O)[O-])NCc1cnc(Cl)s1 [Clothianidin, clothianidin, reference compound]
DWV levels ([1]; clothianidin treated bees compared to bees supplemented with 20 ppm MBCD): higher levels of DWV | median lifespan (honey bees [2]; [8]): 13.5 days | median lifespan (honey bees [3]): 22 days | Sublethal LD25 (honey bee): 1.0 ng/bee

CCOP(=S)(OCC)Oc1nc(Cl)c(Cl)cc1Cl [Chlorpyrifos, chlorpyrifos, reference compound]
median lifespan (honey bees [2]; [8]): 26 days | Sublethal LD25 (honey bee): 0.43 ng/bee

methyl-β-cyclodextrin [MBCD]
decrease in DWV (+) sense viral genome ([1]; 3 days after treatment): ~2 fold | decrease in DWV (−) sense replicative strand ([1]; 3 days post treatment): approximately 3 fold | decrease in DWV (−) sense replicative strand ([1]; 6 days post treatment): ~2 fold | decrease in DWV (+) sense viral genome ([1]; 6 days post treatment): non-significant decrease | increase in median lifespan ([4]; 1 μg MBCD per bee/per week in 50% sucrose): 9 days | increase in median lifespan ([4]; 10 μg MBCD per bee/per week in 50% sucrose): 6.5 days | median lifespan (honey bees [2]; chlorpyrifos plus 1 μg/bee MBCD, chlorpyrifos alone 26 days): 36.5 days | median lifespan (honey bees [2]; chlorpyrifos plus 10 μg/bee MBCD, chlorpyrifos alone 26 days): 30 days | median lifespan (honey bees [2]; clothianidin plus 1 μg/bee MBCD, clothianidin alone 13.5 days): 31 days | median lifespan (honey bees [2]; clothianidin plus 10 μg/bee MBCD, clothianidin alone 13.5 days): 40 days | median lifespan (honey bees [2]; imidacloprid plus 1 μg/bee MBCD, imidacloprid alone 32 days): 31 days | median lifespan (honey bees [2]; imidacloprid plus 10 μg/bee MBCD, imidacloprid alone 32 days): 36 days | decrease in GSTS1 transcript level [5]: 1.5 fold | bee weight versus control ([6]; 3 days after feeding): significantly higher weight | bee weight versus control ([6]; 6 days after feeding): statistically comparable | median lifespan [7]: 9 days

O=[N+]([O-])NC1=NCCN1Cc1ccc(Cl)nc1 [Imidacloprid, imidacloprid, reference compound]
median lifespan (honey bees [2]; [8]): 32 days | Sublethal LD25 (honey bee): 4.3 ng/bee

Cc1ccc(/N=C/N(C)/C=N/c2ccc(C)cc2C)c(C)c1 [Amitraz, amitraz, reference compound]
colony (hive) loss (honey bee colonies): about 20% | total frames containing bees (honey bee colonies): 48.5 frames

Reference: patent US11622975B2, “Compositions and methods for improved honey bee health” (priority 2019, dated 2023)
